Source: US7462600B2, “Macrolides” (Pfizer Inc, priority 2004, dated 2008)
Converted amounts (≈) assume the structure as drawn. Read-outs that look alike come from different tables or passages of the source.

Key:
Format in all cases: cell-based
[1] = tested on: Streptococcus pneumoniae 1095; settings: microtiter broth dilution
Protocol: (§1) The assay described herein includes a panel of bacterial strains assembled to include a variety of target pathogenic species, including representatives of macrolide resistance mechanisms that have been characterized. In many cases, both the macrolide-susceptible parent strain and the macrolide-resistant strain derived from it are available to provide a more accurate assessment of the compound's ability to circumvent the resistance mechanism. The assay is performed in microtiter trays and interpreted according to Performance Standards for Antimicrobial Susceptibility Testing; 14th Informational Supplement (M100-S14), published by The National Committee for Clinical Laboratory Standards (NCCLS) guidelines; the MIC is used to compare strains. Compounds are initially dissolved in DMSO as 40 mg/ml stock solutions.

[2] = tested on: Streptococcus pneumoniae 1175; settings: microtiter broth dilution
Protocol: as §1

[3] = tested on: Streptococcus pneumoniae 1016; test: MIC, microtiter broth dilution (NCCLS M100-S14), S. pneumoniae 1016 (susceptible)
Protocol: as §1

[4] = tested on: Streptococcus pyogenes 1079; test: MIC, microtiter broth dilution (NCCLS M100-S14), S. pyogenes 1079 (ermB)
Protocol: as §1

[5] = tested on: Haemophilus influenzae 1218; test: MIC, microtiter broth dilution (NCCLS M100-S14), H. influenzae 1218 (susceptible)
Protocol: as §1

[6] = S. pneumoniae 1016 (susceptible)
[7] = H. influenzae 1218 (susceptible)

| SMILES | MIC S. pneumo. 1095 ([1]; Streptococcus pneumoniae 1095) [µg/mL] | MIC S. pneumo. 1175 ([2]; Streptococcus pneumoniae 1175) [µg/mL] | MIC S. pneumo. 1016 ([3]; Streptococcus pneumoniae 1016) [µg/mL] | MIC S. pyogenes 1079 ([4]; Streptococcus pyogenes 1079) [µg/mL] | MIC S. pneumo. 1095 ([1]; S. pneumoniae 1095 (ermB)) [µg/mL] | MIC S. pneumo. 1175 ([2]; S. pneumoniae 1175 (mefA)) [µg/mL] | MIC S. pneumo. 1016 [3, 6] [µg/mL] | MIC S. pyogenes 1079 ([4]; S. pyogenes 1079 (ermB)) [µg/mL] | MIC H. influenzae 1218 ([5]; Haemophilus influenzae 1218) [µg/mL] | MIC H. influenzae 1218 [5, 7] [µg/mL] |
| --- | --- | --- | --- | --- | --- | --- | --- | --- | --- | --- |
| CCC1OC(=O)C(C)C(=O)C(C)C(OC2OC(C)CC(N(C)C)C2O)C(C)(OC)CC(C)C(=O)C(C)C2N(C3CN(Cc4nc5ccccc5[nH]4)C3)C(=O)OC12C (stereo not shown) [Example 1.09, (1H-benzo[d]imidazo-2-yl)methyl] | <0.06 | 0.25 (≈ 0.313 µM) | <0.06 | >64.00 | – | – | – | – | – | – |
| CCC1OC(=O)C(C)C(=O)C(C)C(OC2OC(C)CC(N(C)C)C2O)C(C)(OC)CC(C)C(=O)C(C)C2N(C3CN(C(COC)c4ccnc5ncccc45)C3)C(=O)OC12C (stereo not drawn) [Example 1.81, 3-descladinosyl-11,12-dideoxy-4-O-methyl-3-oxo-12,11-(oxycarbonyl-(1-(2-(methoxy)-1R-(1,8-napthyridin-4-yl)-ethyl)-azetidin-3-yl)-imino)-erythromycin A] | 0.5 (≈ 0.585 µM) | <0.063 | <0.063 | 4 (≈ 4.68 µM) | – | – | – | – | – | – |
| CC[C@H]1OC(=O)[C@H](C)C(=O)[C@H](C)[C@@H](O[C@@H]2O[C@H](C)C[C@H](N(C)C)[C@H]2O)[C@](C)(OC)C[C@@H](C)C(=O)[C@H](C)[C@H]2N(CC3(C)CN(C(=O)c4ccc5ncsc5c4)C3)C(=O)O[C@]12C.O=CO [6.19] | – | – | – | – | 1 | 0.5 | <0.06 | >64.00 | – | – |
| CC[C@H]1OC(=O)[C@H](C)C(=O)[C@H](C)[C@@H](O[C@@H]2O[C@H](C)C[C@H](N(C)C)[C@H]2O)[C@](C)(OC)C[C@@H](C)C(=O)[C@H](C)[C@H]2N(CC3(C)CN(C(=O)c4cncc5ccccc45)C3)C(=O)O[C@]12C.O=CO [6.20] | – | – | – | – | 64 | 0.5 | <0.06 | >64.00 | – | – |
| CC[C@H]1OC(=O)[C@H](C)C(=O)[C@H](C)[C@@H](O[C@@H]2O[C@H](C)C[C@H](N(C)C)[C@H]2O)[C@](C)(OC)C[C@@H](C)C(=O)[C@H](C)[C@H]2N(CC3(C)CN(C(=O)c4ccc5ncccc5c4)C3)C(=O)O[C@]12C.O=CO [6.15] | – | – | – | – | 8 | 2 | <0.06 | >64.00 | – | – |
| CC[C@H]1OC(=O)[C@H](C)C(=O)[C@H](C)[C@@H](O[C@@H]2O[C@H](C)C[C@H](N(C)C)[C@H]2O)[C@](C)(OC)C[C@@H](C)C(=O)[C@H](C)[C@H]2N(CC3(C)CN(C(=O)c4cccc(-n5cccn5)n4)C3)C(=O)O[C@]12C.O=CO [6.21] | – | – | – | – | 16 | 0.5 | <0.06 | >64.00 | – | – |
| CCC1OC(=O)C(C)C(=O)C(C)C(OC2OC(C)CC(N(C)C)C2O)C(C)(OC)CC(C)C(=O)C(C)C2N(CC3CN(C(=O)c4cccc5cccnc45)C3)C(=O)OC12C (stereo not shown) [Example 4.34, 3-descladinosyl-11,12-dideoxy-6-O-methyl-3-oxo-12,11-(oxycarbonyl-((1-(quinoline-8-carbonyl)-azetidin-3-yl)-methyl)-imino)-erythromycin A] | 1 (≈ 1.19 µM) | 1 (≈ 1.19 µM) | <0.06 | – | – | – | – | – | 0.25 (≈ 0.299 µM) | – |
| CC[C@H]1OC(=O)[C@H](C)C(=O)[C@H](C)[C@@H](O[C@@H]2O[C@H](C)C[C@H](N(C)C)[C@H]2O)[C@](C)(OC)C[C@@H](C)C(=O)[C@H](C)[C@H]2N(CC3(C)CN(C(=O)c4ccc5cccnc5c4)C3)C(=O)O[C@]12C.O=CO [6.16] | – | – | – | – | 0.12 | 0.12 | <0.06 | >64.00 | – | – |
| CC[C@H]1OC(=O)[C@H](C)C(=O)[C@H](C)[C@@H](O[C@@H]2O[C@H](C)C[C@H](N(C)C)[C@H]2O)[C@](C)(OC)C[C@@H](C)C(=O)[C@H](C)[C@H]2N(CC3(C)CN(C(=O)c4cccc5cccnc45)C3)C(=O)O[C@]12C.O=CO [6.17] | – | – | – | – | >64.00 | 0.12 | <0.06 | >64.00 | – | – |
| CC[C@H]1OC(=O)[C@H](C)C(=O)[C@H](C)[C@@H](O[C@@H]2O[C@H](C)C[C@H](N(C)C)[C@H]2O)[C@](C)(OC)C[C@@H](C)C(=O)[C@H](C)[C@H]2N(CC3(C)CN(C(=O)c4cnc5ccccc5c4)C3)C(=O)O[C@]12C.O=CO [6.12] | – | – | – | – | 0.25 | 0.12 | <0.06 | >64.00 | – | – |
| CC[C@H]1OC(=O)[C@H](C)C(=O)[C@H](C)[C@@H](O[C@@H]2O[C@H](C)C[C@H](N(C)C)[C@H]2O)[C@](C)(OC)C[C@@H](C)C(=O)[C@H](C)[C@H]2N(CC3(C)CN(C(=O)c4cccc5ncccc45)C3)C(=O)O[C@]12C.O=CO [6.14] | – | – | – | – | 8 | 0.25 | <0.06 | >64.00 | – | – |
| CCC1OC(=O)C(C)C(=O)C(C)C(OC2OC(C)CC(N(C)C)C2O)C(C)(OC)CC(C)C(=O)C(C)C2N(C3CN(Cc4c(F)cccc4OC)C3)C(=O)OC12C (stereo not shown) [Example 1.85, 3-descladinosyl-11,12-dideoxy-6-O-methyl-3-oxo-12,11-(oxycarbonyl-(1-(1-fluoro-3-methoxybenzene-2-methyl)-azetidin-3-yl)-imino)-erythromycin A] | – | – | <0.063 | 16 (≈ 19.9 µM) | – | – | – | – | 2 (≈ 2.48 µM) | – |
| CCC1OC(=O)C(C)C(=O)C(C)C(OC2OC(C)CC(N(C)C)C2O)C(C)(OC)CC(C)C(=O)C(C)C2N(CC3CCN(Cc4cccc5cccnc45)C3)C(=O)OC12C (stereo not shown) [11.12] | – | – | – | – | <0.06 | <0.06 | <0.06 | – | – | <0.06 |
| CC[C@H]1OC(=O)[C@H](C)C(=O)[C@H](C)[C@@H](O[C@@H]2O[C@H](C)C[C@H](N(C)C)[C@H]2O)[C@](C)(OC)C[C@@H](C)C(=O)[C@H](C)[C@H]2N(CC3(C)CN(C(=O)c4nc5ccccc5[nH]4)C3)C(=O)O[C@]12C.O=CO [6.18] | – | – | – | – | 0.25 | 0.25 | <0.06 | >64.00 | – | – |
| CC[C@H]1OC(=O)[C@H](C)C(=O)[C@H](C)[C@@H](O[C@@H]2O[C@H](C)C[C@H](N(C)C)[C@H]2O)[C@](C)(OC)C[C@@H](C)C(=O)[C@H](C)[C@H]2N(CC3(C)CN(C(=O)c4ccnc5ccccc45)C3)C(=O)O[C@]12C.O=CO [6.13] | – | – | – | – | 8 | <0.06 | <0.06 | >64.00 | – | – |
| CCC1OC(=O)C(C)C(=O)C(C)C(OC2OC(C)CC(N(C)C)C2O)C(C)(OC)CC(C)C(=O)C(C)C2N(C3CN(Cc4ccn(-c5ccccn5)n4)C3)C(=O)OC12C (stereo not shown) [Example 1.10] | <0.06 | 0.12 (≈ 0.145 µM) | <0.06 | >64.00 | – | – | – | – | – | – |
| CC[C@H]1OC(=O)[C@H](C)C(=O)[C@H](C)[C@@H](O[C@@H]2O[C@H](C)C[C@H](N(C)C)[C@H]2O)[C@](C)(OC)C[C@@H](C)C(=O)[C@H](C)[C@H]2N(CC3(C)CN(C(=O)c4cc5cccnc5[nH]4)C3)C(=O)O[C@]12C [6.23] | – | – | – | – | <0.06 | 0.25 (≈ 0.298 µM) | <0.06 | 64 (≈ 76.2 µM) | – | – |
| CCC1OC(=O)C(C)C(=O)C(C)C(OC2OC(C)CC(N(C)C)C2O)C(C)(OC)CC(C)C(=O)C(C)C2N(C3CN(Cc4ccc5ncccc5c4)C3)C(=O)OC12C (stereo not shown) [Example 1.07, (quinolin-6-yl)methyl] | <0.06 | 0.25 (≈ 0.309 µM) | <0.06 | 16 (≈ 19.8 µM) | – | – | – | – | – | – |
| CCC1OC(=O)C(C)C(=O)C(C)C(OC2OC(C)CC(N(C)C)C2O)C(C)(OC)CC(C)C(=O)C(C)C2N(C3CN(Cc4ccccc4OC(F)(F)F)C3)C(=O)OC12C (stereo not shown) [Example 1.88, 3-descladinosyl-11,12-dideoxy-6-O-methyl-3-oxo-12,11-(oxycarbonyl-(1-(2-(trifluoromethoxy)benzene-1-methyl)-azetidin-3-yl)-imino)-erythromycin A] | – | – | <0.063 | 8 (≈ 9.5 µM) | – | – | – | – | 0.5 (≈ 0.594 µM) | – |
| CCC1OC(=O)C(C)C(=O)C(C)C(OC2OC(C)CC(N(C)C)C2O)C(C)(OC)CC(C)C(=O)C(C)C2N(CC3CCN(Cc4cccc5cnccc45)C3)C(=O)OC12C (stereo not shown) [11.13] | – | – | – | – | <0.06 | <0.06 | <0.06 | – | – | 0.25 (≈ 0.299 µM) |
| CCC1OC(=O)C(C)C(=O)C(C)C(OC2OC(C)CC(N(C)C)C2O)C(C)(OC)CC(C)C(=O)C(C)C2N(C3CN(Cc4ccc(F)c(F)c4)C3)C(=O)OC12C (stereo not shown) [Example 1.08, 3,4-difluorobenzyl] | 0.5 (≈ 0.63 µM) | 0.25 (≈ 0.315 µM) | <0.06 | >64.00 | – | – | – | – | – | – |
